Data from PubChem BioAssay (NCI).
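Tested at 5 concentrations; 48 h exposure; 96-well plates; endpoints linearly interpolated, else capped at highest concentration. TGI marks complete inhibition of growth.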

What was measured:
Assay in all cases: inhibition of tumour cell growth, NCI panel, 48 h
NCI-H522 lung = test system: NCI-H522 lung
MALME-3M melanoma = test system: MALME-3M melanoma
SW-620 colon = test system: SW-620 colon
RXF 393 renal = test system: RXF 393 renal
TK-10 renal = test system: TK-10 renal
NCI-H460 lung = test system: NCI-H460 lung
SF-539 CNS = test system: SF-539 CNS
SF-268 CNS = test system: SF-268 CNS
HCC-2998 colon = test system: HCC-2998 colon
U251 CNS = test system: U251 CNS
SNB-75 CNS = test system: SNB-75 CNS
COLO 205 colon = test system: COLO 205 colon
SK-OV-3 ovarian = test system: SK-OV-3 ovarian
OVCAR-8 ovarian = test system: OVCAR-8 ovarian
SK-MEL-2 melanoma = test system: SK-MEL-2 melanoma
SR leukemia = test system: SR leukemia
OVCAR-4 ovarian = test system: OVCAR-4 ovarian
HCT-15 colon = test system: HCT-15 colon
KM12 colon = test system: KM12 colon
HOP-18 NSCLC = test system: HOP-18 NSCLC
LXFL 529 NSCLC = test system: LXFL 529 NSCLC
A549 NSCLC = test system: A549 NSCLC
MOLT-4 leukemia = test system: MOLT-4 leukemia
SK-MEL-28 melanoma = test system: SK-MEL-28 melanoma
SK-MEL-5 melanoma = test system: SK-MEL-5 melanoma
NCI-H226 lung = test system: NCI-H226 lung
CCRF-CEM leukemia = test system: CCRF-CEM leukemia
IGROV1 ovarian = test system: IGROV1 ovarian
DMS 273 small cell lung = test system: DMS 273 small cell lung
K-562 leukemia = test system: K-562 leukemia
SN12C renal = test system: SN12C renal
EKVX NSCLC = test system: EKVX NSCLC
RPMI-8226 leukemia = test system: RPMI-8226 leukemia
DMS 114 small cell lung = test system: DMS 114 small cell lung
M14 melanoma = test system: M14 melanoma
HL-60(TB) leukemia = test system: HL-60(TB) leukemia
A498 renal = test system: A498 renal
HCT-116 colon = test system: HCT-116 colon
SNB-78 CNS = test system: SNB-78 CNS
DLD-1 colon = test system: DLD-1 colon
UACC-62 melanoma = test system: UACC-62 melanoma
RXF-631 renal = test system: RXF-631 renal
HOP-62 NSCLC = test system: HOP-62 NSCLC
UO-31 renal = test system: UO-31 renal
ACHN renal = test system: ACHN renal
M19-MEL melanoma = test system: M19-MEL melanoma
SF-295 CNS = test system: SF-295 CNS
UACC-257 melanoma = test system: UACC-257 melanoma
OVCAR-3 ovarian = test system: OVCAR-3 ovarian
HOP-92 NSCLC = test system: HOP-92 NSCLC
HT29 colon = test system: HT29 colon
786-0 renal = test system: 786-0 renal
SNB-19 CNS = test system: SNB-19 CNS
OVCAR-5 ovarian = test system: OVCAR-5 ovarian
LOX IMVI melanoma = test system: LOX IMVI melanoma
NCI-H23 lung = test system: NCI-H23 lung
KM20L2 colon = test system: KM20L2 colon
CAKI-1 renal = test system: CAKI-1 renal

SMILES: CC(C)(CN1CCCCC1)C(=O)/C=C/c1ccc(Cl)c(Cl)c1
- TGI (NCI-H522 lung): 2.67 µM
- TGI (MALME-3M melanoma): 3.31 µM
- TGI (SW-620 colon): 2.94 µM
- TGI (RXF 393 renal): 2.42 µM
- TGI (TK-10 renal): 2.8 µM
- TGI (NCI-H460 lung): 3.46 µM
- TGI (SF-539 CNS): 4.6 µM
- TGI (SF-268 CNS): 3.74 µM
- TGI (HCC-2998 colon): 3.21 µM
- TGI (U251 CNS): 2.7 µM
- TGI (SNB-75 CNS): 3.13 µM
- TGI (COLO 205 colon): 2.85 µM
- TGI (SK-OV-3 ovarian): 7.51 µM
- TGI (OVCAR-8 ovarian): > 100 µM
- TGI (SK-MEL-2 melanoma): 3.18 µM
- TGI (SR leukemia): 4.69 µM
- TGI (OVCAR-4 ovarian): 2.87 µM
- TGI (HCT-15 colon): 2.73 µM
- TGI (KM12 colon): 3.25 µM
- TGI (HOP-18 NSCLC): 2.85 µM
- TGI (LXFL 529 NSCLC): 2.78 µM
- TGI (A549 NSCLC): 4.07 µM
- TGI (MOLT-4 leukemia): 4.57 µM
- TGI (SK-MEL-28 melanoma): 3.37 µM
- TGI (SK-MEL-5 melanoma): 3.5 µM
- TGI (NCI-H226 lung): 3.15 µM
- TGI (CCRF-CEM leukemia): 3.27 µM
- TGI (IGROV1 ovarian): 4.15 µM
- TGI (DMS 273 small cell lung): 3.2 µM
- TGI (K-562 leukemia): 4.13 µM
- TGI (SN12C renal): 2.92 µM
- TGI (EKVX NSCLC): 3.29 µM
- TGI (RPMI-8226 leukemia): 5.34 µM
- TGI (DMS 114 small cell lung): 3.05 µM
- TGI (M14 melanoma): 3.07 µM
- TGI (HL-60(TB) leukemia): 3.4 µM
- TGI (A498 renal): 3.09 µM
- TGI (HCT-116 colon): 3.08 µM
- TGI (SNB-78 CNS): 4.5 µM
- TGI (DLD-1 colon): 3.5 µM
- TGI (UACC-62 melanoma): 4.06 µM
- TGI (RXF-631 renal): 3.72 µM
- TGI (HOP-62 NSCLC): 3.8 µM
- TGI (UO-31 renal): 2.99 µM
- TGI (ACHN renal): 2.88 µM
- TGI (M19-MEL melanoma): 3.21 µM
- TGI (SF-295 CNS): 5.86 µM
- TGI (UACC-257 melanoma): 2.41 µM
- TGI (OVCAR-3 ovarian): 2.94 µM
- TGI (HOP-92 NSCLC): 2.34 µM
- TGI (HT29 colon): 3.06 µM
- TGI (786-0 renal): 2.69 µM
- TGI (SNB-19 CNS): 12.2 µM
- TGI (OVCAR-5 ovarian): 3.08 µM
- TGI (LOX IMVI melanoma): 2.76 µM
- TGI (NCI-H23 lung): 3.26 µM

SMILES: COc1nc(NC2OCC(OC(C)=O)C(OC(C)=O)C2OC(C)=O)c(-c2csc(N)n2)c(=O)n1C (stereo not given)
- TGI (NCI-H522 lung): > 100 µM
- TGI (MALME-3M melanoma): > 100 µM
- TGI (SW-620 colon): > 100 µM
- TGI (TK-10 renal): > 100 µM
- TGI (NCI-H460 lung): > 100 µM
- TGI (SF-539 CNS): > 100 µM
- TGI (SF-268 CNS): > 100 µM
- TGI (U251 CNS): > 100 µM
- TGI (SNB-75 CNS): > 100 µM
- TGI (COLO 205 colon): > 100 µM
- TGI (SK-OV-3 ovarian): > 100 µM
- TGI (OVCAR-8 ovarian): > 100 µM
- TGI (SK-MEL-2 melanoma): > 100 µM
- TGI (SR leukemia): > 100 µM
- TGI (OVCAR-4 ovarian): > 100 µM
- TGI (HCT-15 colon): > 100 µM
- TGI (KM12 colon): > 100 µM
- TGI (HOP-18 NSCLC): > 100 µM
- TGI (LXFL 529 NSCLC): > 100 µM
- TGI (A549 NSCLC): > 100 µM
- TGI (MOLT-4 leukemia): > 100 µM
- TGI (SK-MEL-28 melanoma): > 100 µM
- TGI (SK-MEL-5 melanoma): > 100 µM
- TGI (NCI-H226 lung): > 100 µM
- TGI (CCRF-CEM leukemia): > 100 µM
- TGI (IGROV1 ovarian): > 100 µM
- TGI (K-562 leukemia): > 100 µM
- TGI (SN12C renal): > 100 µM
- TGI (RPMI-8226 leukemia): > 100 µM
- TGI (KM20L2 colon): > 100 µM
- TGI (DMS 114 small cell lung): > 100 µM
- TGI (M14 melanoma): > 100 µM
- TGI (HL-60(TB) leukemia): > 100 µM
- TGI (A498 renal): > 100 µM
- TGI (HCT-116 colon): > 100 µM
- TGI (SNB-78 CNS): > 100 µM
- TGI (DLD-1 colon): > 100 µM
- TGI (UACC-62 melanoma): > 100 µM
- TGI (CAKI-1 renal): > 100 µM
- TGI (RXF-631 renal): > 100 µM
- TGI (HOP-62 NSCLC): > 100 µM
- TGI (UO-31 renal): > 100 µM
- TGI (ACHN renal): > 100 µM
- TGI (M19-MEL melanoma): > 100 µM
- TGI (SF-295 CNS): > 100 µM
- TGI (UACC-257 melanoma): > 100 µM
- TGI (OVCAR-3 ovarian): > 100 µM
- TGI (HOP-92 NSCLC): > 100 µM
- TGI (HT29 colon): > 100 µM
- TGI (786-0 renal): > 100 µM
- TGI (SNB-19 CNS): > 100 µM
- TGI (OVCAR-5 ovarian): > 100 µM
- TGI (LOX IMVI melanoma): > 100 µM
- TGI (NCI-H23 lung): > 100 µM
